Measured values as given in ChEMBL document CHEMBL1201862, “PubChem BioAssay data set” (2004).
Where a name gives a salt, the structure may show the parent alone. Activity calls are given as the source filed them.

Experiments:
[1] = molecular target: NADPH oxidase 1 (Homo sapiens, UniProt Q9Y5S8); test: Late-stage luminescence-based cell-based dose response assay to identify inhibitors of NADPH oxidase 1 (NOX1): Synthesized analogs.; format: functional
[2] = viability loss in Vero cells – cytotoxicity control for Vif-APOBEC3G degradation inhibitor project, dose response (AID 1117358); format: functional; details: Vero
[3] = viability of PTEN-deleted HCT116 cells – cell-based, HCT116 PTEN knockout, dose response (AID 1047); format: functional;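 also: HCT116 colon tumor cells with PTEN knocked out; cells exposed to compound for 60 hours before readout; potency for loss of cell viability measured by luminescence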
[4] = luciferase reporter signal suppression in cells – H4 neuroglioma cells, luminescence, dose response (AID 1990); format: functional, cell-based
[5] = alpha-synuclein stem-loop luciferase translation blockers – H4 neuroglioma cells, luminescence, confirmation (AID 1988); format: functional, cell-based
[6] = Luminescence Cell-Based Dose Response HTS to Identify Inhibitors of 5'UTR Stem-Loop Driven Prion Protein mRNA Translation in H4 Neuroglioblastoma Cells. [Related pubchem assays: 1827 (Project Summary), 1813 (Primary HTS)]; format: functional
[7] = viability of HCT116 lacking mutant beta-catenin – cell-based, human colon tumor, dose response (AID 1045); format: functional;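 also: HCT116 colon tumor cells with beta catenin knocked out; cells exposed to compound for 60 hours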
[8] = molecular target: Voltage-dependent T-type calcium channel subunit alpha-1H (Homo sapiens, UniProt O95180); format: functional;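 also: channel activity triggered by adding a high calcium stimulation buffer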
[9] = viability loss in human Jurkat cells – cell-based, luminescence, cytotoxicity control for P. falciparum gametocyte viability project, dose response (AID 1117277); format: functional;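 also: potency reflects loss of cellular ATP meaning fewer viable cells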
[10] = viability inhibitors of stage V gametocytes – luminescence, dose response (AID 1117278); format: functional, cell-based;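 also: gametocytes exposed to compound for 24 hours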
[11] = molecular target: T1, Carboxy-terminal domain RNA polymerase II polypeptide A small phosphatase 1 (Homo sapiens, UniProt Q9GZU7); test: CTDSP1 inhibitors, concentration-response, biochemical, absorbance readout, ultra-high-throughput screen actives (AID 540297); format: functional
T1 sequence (Q9GZU7 whole entry): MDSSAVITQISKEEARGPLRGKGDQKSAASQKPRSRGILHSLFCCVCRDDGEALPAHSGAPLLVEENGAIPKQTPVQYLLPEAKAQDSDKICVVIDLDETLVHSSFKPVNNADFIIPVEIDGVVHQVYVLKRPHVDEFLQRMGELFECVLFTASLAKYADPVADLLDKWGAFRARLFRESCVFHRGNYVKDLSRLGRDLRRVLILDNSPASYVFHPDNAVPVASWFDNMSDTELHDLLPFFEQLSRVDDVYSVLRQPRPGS

[12] = molecular target: Long-chain-fatty-acid--AMP ligase FadD28 (Mycobacterium tuberculosis, UniProt P9WQ59); test: Fluorescence polarization aasay to screen for inhibitors that compete for the binding of FadD28 to a bisubstrate Measured in Biochemical System Using Plate Reader - 2147-01_Inhibitor_Dose_CherryPick_Activity.; format: functional, Mycobacterium tuberculosis H37Rv
[13] = molecular target: DNA (cytosine-5)-methyltransferase 1 (Homo sapiens, UniProt P26358); test: inhibition of DNA methylation by DNMT1 – biochemical, fluorescent molecular beacon, confirmation (AID 602386); format: functional
[14] = molecular target: T2, RNA-binding protein pos-1 (Caenorhabditis elegans, UniProt G5EF15); test: disruptors of C. elegans POS-1 RNA interaction – biochemical, fluorescence polarization, dose response (AID 1964);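 also: purified POS-1 fused to maltose binding protein made in E. coli; potency of compounds blocking POS-1 binding to fluorescent RNA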
T2 sequence (G5EF15 whole entry): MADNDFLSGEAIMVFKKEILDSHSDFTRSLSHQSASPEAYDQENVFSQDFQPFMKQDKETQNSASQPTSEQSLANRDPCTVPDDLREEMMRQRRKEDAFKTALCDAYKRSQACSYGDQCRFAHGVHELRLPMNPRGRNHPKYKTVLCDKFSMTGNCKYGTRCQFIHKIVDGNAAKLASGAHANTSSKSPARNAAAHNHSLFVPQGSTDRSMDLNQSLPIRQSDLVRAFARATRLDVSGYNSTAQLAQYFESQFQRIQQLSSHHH

[15] = molecular target: Large T antigen (Simian virus 40, UniProt P03070); format: functional, Betapolyomavirus macacae;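 also: Confirmatory-stage PubChem screen for compounds that inhibit SV40 T antigen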
[16] = molecular target: T3, Zinc finger protein mex-5 (Caenorhabditis elegans, UniProt Q9XUB2); test: potency of MEX-5 RNA-binding blockers – biochemical, C. elegans, fluorescence polarization, dose response (AID 1960)
T3 sequence (Q9XUB2 whole entry): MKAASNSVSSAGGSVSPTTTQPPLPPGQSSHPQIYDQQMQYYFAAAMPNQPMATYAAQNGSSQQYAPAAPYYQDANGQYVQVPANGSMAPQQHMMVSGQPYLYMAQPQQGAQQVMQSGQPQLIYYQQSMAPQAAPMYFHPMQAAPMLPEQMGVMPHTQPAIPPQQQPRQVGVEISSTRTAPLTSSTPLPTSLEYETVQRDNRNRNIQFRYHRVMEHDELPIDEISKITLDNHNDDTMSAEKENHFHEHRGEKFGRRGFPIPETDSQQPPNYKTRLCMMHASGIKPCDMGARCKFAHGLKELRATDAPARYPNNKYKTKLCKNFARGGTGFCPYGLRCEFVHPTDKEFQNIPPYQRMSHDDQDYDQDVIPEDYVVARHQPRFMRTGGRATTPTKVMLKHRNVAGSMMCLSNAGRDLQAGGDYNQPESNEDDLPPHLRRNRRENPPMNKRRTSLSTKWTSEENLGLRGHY

[17] = molecular target: Bifunctional protein GlmU (Mycobacterium tuberculosis, UniProt P9WMN3); test: Inhibitors of Mycobacterial Glucosamine-1-phosphate acetyl transferase (GlmU). Secondary screen.; set-up: species or system Mycobacterium tuberculosis H37Rv
[18] = lung carcinoma cell viability loss – CellTiter-Glo luminescence, dry powder, set 17, dose response (AID 1117284); format: functional, cell-based; details: A549
[19] = Orthopox viral replication plaque formation Measured in Cell-Based and Microorganism Combination System Using Imaging - 2142-05_Inhibitor_Dose_DryPowder_Activity.; format: functional
[20] = Single fluorophore orthopox expression reporter, late gene expression Measured in Cell-Based and Microorganism Combination System Using Plate Reader - 2142-08_Inhibitor_Dose_DryPowder_Activity.; format: functional
[21] = inhibitors of orthopox intermediate gene expression, dose response, cell-based, single fluorophore reporter, dry powder (AID 1117271); format: functional
[22] = P. falciparum Dd2 growth inhibitors, dose response, SYBR Green, cherry-picked samples (AID 1159567); format: functional, cell-based
[23] = Dd2 parasite growth inhibition in erythrocytes – SYBR Green, dry powder samples, set 9, dose response (AID 1159568); format: functional, cell-based
[24] = Plasmodium falciparum Dd2 Sybr green parasite growth Measured in Cell-Based and Microorganism Combination System Using Plate Reader - 2153-01_Inhibitor_Dose_DryPowder_Activity_Set3.; format: functional
[25] = growth inhibition of yeast DHODH-expressing 3D7 parasites – SYBR Green, dry powder samples, dose response (AID 1159570); format: functional, cell-based;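 also: parasite growth measured after 72 hours of compound exposure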
[26] = toxicity to human HepG2 hepatoma cells – cell-based, plate reader, dry powder samples, cytotoxicity control, dose response (AID 1159569); format: functional;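 also: inhibitor potency with signal falling toward the positive control level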
[27] = growth inhibition of PfATP4-mutant resistant parasites – NITD609-resistant line, SYBR Green, dry powder, dose response (AID 1159571); format: functional, cell-based;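 also: parasites synchronized at ring stage by sorbitol before testing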
[28] = Dd2 malaria parasite growth inhibition potency – SYBR Green, dry powder samples, dose response (AID 1159566); format: functional, cell-based;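 also: potency for growth inhibition with lower SYBR green DNA signal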
[29] = rise of 4N DNA cells, HeLa – IC50, dose response (AID 1117351); format: functional, cell-based
[30] = rise of 2N DNA cells, HeLa – IC50, dose response (AID 1117349); format: functional, cell-based
[31] = system: Streptococcus sp. 'group A'; test: Streptococcus pyogenes SK(-)GAS viability under kanamycin – luminescence, BacTiterGlo, confirmation, counter-screen for streptokinase expression inhibitor project, dose response (AID 1900); format: functional, organism-based
[32] = glucagon-like peptide-1 release potency in STC-1, concentration-response, half-maximal inhibitory concentration in the STC-1 line (AID 1117345); format: functional, cell-based
[33] = Potency on glucagon-like peptide 1 release, dose-response in NCI-H716 cell line, half maximal inhibitory concentration (AID 1117344); format: functional, cell-based
[34] = system: Streptococcus; test: GAS UMAA2166 growth inhibition – luminescence, BacTiterGlo, counter-screen for streptokinase expression inhibitor project, dose response (AID 1915); format: functional, organism-based; details: read-out: EC50;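 also: potency for reduction of bacterial viability or growth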
[35] = IC50 of insulin release inhibition, rat insulinoma INS-1E line, 5 mM glucose, cell-based (AID 1117331); format: functional
[36] = cells; format: functional, cell-based; details: INS-1E
[37] = cells; format: functional, cell-based
[38] = molecular target: T4, Trace amine-associated receptor 1 (Homo sapiens, UniProt Q96RJ0); test: Fluorescence-based cell-based high throughput dose response assay to identify agonists of the human trace amine associated receptor 1 (TAAR1).; format: functional
T4 sequence (Q96RJ0 whole entry): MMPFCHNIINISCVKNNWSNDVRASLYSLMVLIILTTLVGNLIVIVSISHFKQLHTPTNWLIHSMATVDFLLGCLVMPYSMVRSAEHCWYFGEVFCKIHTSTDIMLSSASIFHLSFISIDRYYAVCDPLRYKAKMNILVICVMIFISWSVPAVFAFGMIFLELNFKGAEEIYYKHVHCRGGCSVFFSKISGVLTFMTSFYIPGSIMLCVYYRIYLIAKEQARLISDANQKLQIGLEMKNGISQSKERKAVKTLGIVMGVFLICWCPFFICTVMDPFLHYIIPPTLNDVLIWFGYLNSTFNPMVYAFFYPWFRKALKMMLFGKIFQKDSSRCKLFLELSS

[39] = cells; format: functional, cell-based; remark: listed apart in the source
[40] = molecular target: T4, Trace amine-associated receptor 1; test: Counterscreen for agonists of the human trace amine associated receptor 1 (hTAAR1): Fluorescence-based cell-based high throughput dose response assay to identify hTAAR1 agonist that also desensitize TAAR1 receptor response.; format: functional

Sequence of DNA (cytosine-5)-methyltransferase 1 (P26358 whole entry, the tested form may be a part): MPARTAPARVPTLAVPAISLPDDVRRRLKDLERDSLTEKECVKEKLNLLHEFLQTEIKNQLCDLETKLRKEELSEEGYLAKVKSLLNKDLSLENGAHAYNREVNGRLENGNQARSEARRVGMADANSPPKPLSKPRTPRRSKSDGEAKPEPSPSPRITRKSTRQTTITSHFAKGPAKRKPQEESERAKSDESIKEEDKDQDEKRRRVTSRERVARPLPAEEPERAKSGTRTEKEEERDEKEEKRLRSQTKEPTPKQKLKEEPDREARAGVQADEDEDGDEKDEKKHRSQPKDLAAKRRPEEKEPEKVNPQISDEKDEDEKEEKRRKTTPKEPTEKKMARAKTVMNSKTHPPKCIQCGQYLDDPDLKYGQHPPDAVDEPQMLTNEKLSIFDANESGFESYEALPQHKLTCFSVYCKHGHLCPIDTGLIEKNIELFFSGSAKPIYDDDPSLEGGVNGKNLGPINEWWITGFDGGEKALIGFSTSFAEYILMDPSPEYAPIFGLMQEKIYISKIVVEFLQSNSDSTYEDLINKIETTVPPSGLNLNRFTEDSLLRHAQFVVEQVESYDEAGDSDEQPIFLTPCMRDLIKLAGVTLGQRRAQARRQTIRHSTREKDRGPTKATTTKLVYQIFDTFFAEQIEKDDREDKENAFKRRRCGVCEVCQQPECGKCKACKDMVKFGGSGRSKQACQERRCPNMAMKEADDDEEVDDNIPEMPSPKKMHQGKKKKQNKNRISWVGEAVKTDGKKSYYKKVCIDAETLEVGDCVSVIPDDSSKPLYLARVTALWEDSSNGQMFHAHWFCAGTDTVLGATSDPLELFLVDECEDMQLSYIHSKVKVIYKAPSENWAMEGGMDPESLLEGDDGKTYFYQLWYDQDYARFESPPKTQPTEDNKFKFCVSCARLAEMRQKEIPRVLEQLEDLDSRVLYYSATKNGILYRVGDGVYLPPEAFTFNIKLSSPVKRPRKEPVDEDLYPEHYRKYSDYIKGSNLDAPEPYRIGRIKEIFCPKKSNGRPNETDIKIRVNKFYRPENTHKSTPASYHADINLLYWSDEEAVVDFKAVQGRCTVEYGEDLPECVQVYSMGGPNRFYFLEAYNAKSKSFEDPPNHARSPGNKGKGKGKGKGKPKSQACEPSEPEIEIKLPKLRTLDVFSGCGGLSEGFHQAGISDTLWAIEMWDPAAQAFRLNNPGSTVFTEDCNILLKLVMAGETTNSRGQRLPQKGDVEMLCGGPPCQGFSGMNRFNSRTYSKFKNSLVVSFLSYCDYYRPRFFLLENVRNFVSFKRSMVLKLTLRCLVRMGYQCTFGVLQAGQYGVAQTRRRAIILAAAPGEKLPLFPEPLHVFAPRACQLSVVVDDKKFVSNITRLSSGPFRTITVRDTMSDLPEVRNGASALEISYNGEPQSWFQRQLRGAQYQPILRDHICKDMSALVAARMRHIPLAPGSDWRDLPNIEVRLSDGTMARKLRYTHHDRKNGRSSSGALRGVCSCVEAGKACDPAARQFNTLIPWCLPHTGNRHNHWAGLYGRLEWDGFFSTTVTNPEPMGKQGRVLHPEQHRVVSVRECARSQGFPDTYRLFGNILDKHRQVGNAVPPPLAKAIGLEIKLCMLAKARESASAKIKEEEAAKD
Sequence of Voltage-dependent T-type calcium channel subunit alpha-1H (O95180 whole entry): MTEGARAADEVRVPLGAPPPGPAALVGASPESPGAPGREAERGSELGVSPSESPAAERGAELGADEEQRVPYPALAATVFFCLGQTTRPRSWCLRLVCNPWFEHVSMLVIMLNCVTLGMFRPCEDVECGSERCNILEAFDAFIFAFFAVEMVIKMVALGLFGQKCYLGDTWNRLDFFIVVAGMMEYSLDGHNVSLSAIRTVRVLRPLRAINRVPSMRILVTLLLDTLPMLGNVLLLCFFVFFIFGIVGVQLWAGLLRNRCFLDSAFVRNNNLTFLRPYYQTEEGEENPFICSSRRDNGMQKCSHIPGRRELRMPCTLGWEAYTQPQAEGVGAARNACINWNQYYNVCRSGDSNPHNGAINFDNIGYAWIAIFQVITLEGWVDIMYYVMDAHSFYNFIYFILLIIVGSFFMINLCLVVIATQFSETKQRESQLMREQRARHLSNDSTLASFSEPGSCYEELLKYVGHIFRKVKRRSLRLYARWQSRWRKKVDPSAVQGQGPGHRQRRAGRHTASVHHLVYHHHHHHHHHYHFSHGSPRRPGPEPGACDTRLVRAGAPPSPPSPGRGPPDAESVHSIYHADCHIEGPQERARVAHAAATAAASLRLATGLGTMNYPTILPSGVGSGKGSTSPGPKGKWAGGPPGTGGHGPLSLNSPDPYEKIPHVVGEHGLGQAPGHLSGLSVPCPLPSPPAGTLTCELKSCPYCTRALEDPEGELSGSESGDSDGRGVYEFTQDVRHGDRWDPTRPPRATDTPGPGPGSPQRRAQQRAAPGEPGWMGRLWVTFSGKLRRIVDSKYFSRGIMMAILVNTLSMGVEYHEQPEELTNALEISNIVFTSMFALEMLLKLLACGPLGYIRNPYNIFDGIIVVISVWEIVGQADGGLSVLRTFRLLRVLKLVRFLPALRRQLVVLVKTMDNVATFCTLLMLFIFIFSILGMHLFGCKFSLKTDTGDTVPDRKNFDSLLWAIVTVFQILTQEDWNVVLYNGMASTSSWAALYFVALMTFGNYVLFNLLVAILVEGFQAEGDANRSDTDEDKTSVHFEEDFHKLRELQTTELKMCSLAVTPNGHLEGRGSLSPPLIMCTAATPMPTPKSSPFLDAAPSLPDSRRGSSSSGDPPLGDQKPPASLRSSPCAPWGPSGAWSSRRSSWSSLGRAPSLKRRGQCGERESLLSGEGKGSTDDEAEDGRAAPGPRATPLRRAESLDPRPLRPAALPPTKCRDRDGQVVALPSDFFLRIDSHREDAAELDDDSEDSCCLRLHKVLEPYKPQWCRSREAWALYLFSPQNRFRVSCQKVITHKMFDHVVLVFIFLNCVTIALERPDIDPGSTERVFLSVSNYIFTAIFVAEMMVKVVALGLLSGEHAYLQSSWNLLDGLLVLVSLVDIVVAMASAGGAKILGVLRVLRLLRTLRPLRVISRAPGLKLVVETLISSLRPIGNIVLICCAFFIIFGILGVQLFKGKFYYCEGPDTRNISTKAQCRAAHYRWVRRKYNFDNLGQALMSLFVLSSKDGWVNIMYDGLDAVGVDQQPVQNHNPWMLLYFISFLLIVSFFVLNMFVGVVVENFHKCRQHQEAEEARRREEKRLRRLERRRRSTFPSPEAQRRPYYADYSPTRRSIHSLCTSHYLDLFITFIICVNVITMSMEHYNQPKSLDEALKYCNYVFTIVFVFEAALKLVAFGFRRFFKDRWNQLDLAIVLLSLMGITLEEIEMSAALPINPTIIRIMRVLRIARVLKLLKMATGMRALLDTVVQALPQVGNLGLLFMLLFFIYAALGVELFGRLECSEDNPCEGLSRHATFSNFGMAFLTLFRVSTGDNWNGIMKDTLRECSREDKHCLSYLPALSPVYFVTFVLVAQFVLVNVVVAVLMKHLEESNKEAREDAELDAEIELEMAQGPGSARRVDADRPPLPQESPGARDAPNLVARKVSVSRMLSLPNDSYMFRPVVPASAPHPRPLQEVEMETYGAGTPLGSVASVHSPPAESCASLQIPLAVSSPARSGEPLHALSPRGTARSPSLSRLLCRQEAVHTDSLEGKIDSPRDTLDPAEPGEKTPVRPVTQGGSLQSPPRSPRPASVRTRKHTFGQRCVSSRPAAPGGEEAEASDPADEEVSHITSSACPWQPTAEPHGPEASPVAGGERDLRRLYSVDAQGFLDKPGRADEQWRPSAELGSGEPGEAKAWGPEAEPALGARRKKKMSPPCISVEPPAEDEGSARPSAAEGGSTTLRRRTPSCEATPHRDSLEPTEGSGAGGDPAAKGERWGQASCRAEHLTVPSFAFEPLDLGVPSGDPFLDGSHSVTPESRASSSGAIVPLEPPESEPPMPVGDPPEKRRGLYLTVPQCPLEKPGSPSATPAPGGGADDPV
Sequence of NADPH oxidase 1 (Q9Y5S8 whole entry): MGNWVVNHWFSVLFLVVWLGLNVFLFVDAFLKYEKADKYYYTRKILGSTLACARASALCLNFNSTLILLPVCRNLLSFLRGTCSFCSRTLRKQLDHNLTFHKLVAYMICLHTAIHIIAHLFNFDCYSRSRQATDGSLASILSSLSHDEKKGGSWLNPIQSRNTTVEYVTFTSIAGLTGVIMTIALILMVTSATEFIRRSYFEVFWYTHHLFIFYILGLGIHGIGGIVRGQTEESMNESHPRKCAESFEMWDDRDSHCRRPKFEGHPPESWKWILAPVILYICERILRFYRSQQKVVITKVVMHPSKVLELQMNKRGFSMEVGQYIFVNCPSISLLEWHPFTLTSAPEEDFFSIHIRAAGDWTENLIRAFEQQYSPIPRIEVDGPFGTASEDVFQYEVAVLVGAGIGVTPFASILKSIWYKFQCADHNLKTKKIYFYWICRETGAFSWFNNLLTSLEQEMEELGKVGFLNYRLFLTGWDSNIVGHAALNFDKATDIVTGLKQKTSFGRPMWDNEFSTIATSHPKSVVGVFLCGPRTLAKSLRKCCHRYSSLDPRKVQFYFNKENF
Sequence of Bifunctional protein GlmU (P9WMN3 whole entry): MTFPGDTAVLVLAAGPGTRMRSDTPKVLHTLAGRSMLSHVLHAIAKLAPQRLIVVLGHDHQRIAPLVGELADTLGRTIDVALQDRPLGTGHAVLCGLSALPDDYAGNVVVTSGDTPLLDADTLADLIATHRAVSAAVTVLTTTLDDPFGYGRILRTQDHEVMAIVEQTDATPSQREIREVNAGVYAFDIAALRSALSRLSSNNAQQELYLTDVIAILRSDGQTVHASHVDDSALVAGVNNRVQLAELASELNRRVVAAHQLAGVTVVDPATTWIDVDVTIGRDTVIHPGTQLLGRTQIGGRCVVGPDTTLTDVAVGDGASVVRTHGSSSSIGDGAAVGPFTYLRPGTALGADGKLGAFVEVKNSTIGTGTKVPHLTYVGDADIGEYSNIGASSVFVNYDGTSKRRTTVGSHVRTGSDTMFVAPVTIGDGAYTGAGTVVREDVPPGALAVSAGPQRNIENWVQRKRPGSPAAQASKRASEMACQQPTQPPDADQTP

With CCN1c2ccccc2S(=O)(=O)c2ccccc21 the IC50 [1] was > 50 µM (not active).
With CCN(Cc1ccccc1)S(=O)(=O)c1ccc(C(=O)Nc2nnc(C3CC3)o2)cc1 the CC50 [2] was 20.2 µM (active), the EC50 [3] was 9.37 µM (active) and the EC50 [4] was > 120 µM (not active). The EC50 [5] was 25.3 µM (active), the EC50 [6] was 12.6 µM (active) and the EC50 [7] was 8.9 µM (active). The EC50 [8] was 13.7 µM (active).
For O=C1N[C@@H](c2ccccc2)COC(=O)[C@@H](Cc2ccc(F)cc2)C/C=C\C[C@H]1CC(=O)N(CCO)Cc1ccccc1, the IC50 [9] was 37.8 µM (inactive) and the IC50 [10] was > 109 µM (inactive).
In the case of Cc1ccc(NC(=O)CN2C(=O)N/C(=C\c3cccn3-c3cccc(C(=O)O)c3)C2=O)cc1, the IC50 [11] is reported as 2.2 µM (active), the AC50 [12] is reported as 28 µM (active) and the IC50 [13] is reported as 6.05 µM (active). The EC50 [14] was > 300 µM (not active), the IC50 [15] was > 100 µM (active) and the EC50 [16] was 54 µM (active). For the same compound, the IC50 [17] was 103 µM (active).
For Cc1cccc(-c2ccc(CN(C)C[C@@H]3Oc4cc(C#C[C@@H](C)O)ccc4S(=O)(=O)N([C@@H](C)CO)C[C@@H]3C)cc2)c1, the AC50 [18] was 35.5 µM (active), the AC50 [19] was 0.15 µM (active) and the AC50 [20] was 1.48 µM (active). The AC50 [21] was 1.85 µM (active).
With CCCN1C[C@H](C)[C@@H](OC)CN(C)C(=O)c2cc(NC(=O)Nc3cccc(F)c3)ccc2OC[C@H]1C the AC50 [22] was 2.11 µM (active), the AC50 [23] was 1.61 µM (active) and the AC50 [24] was 2 µM (active). For the same compound, the AC50 [25] was 15.2 µM (active), the AC50 [26] was 42.2 µM (active) and the AC50 [27] was 2.47 µM (active). The AC50 [28] was 0.469 µM (active).
In the case of CCCCCCNC(=O)n1cc(F)c(=O)[nH]c1=O [CARMOFUR], the IC50 [29] is reported as > 10 µM (inactive) and the IC50 [30] is reported as > 10 µM (inactive).
In the case of Clc1ccc(CO/N=C(\Cn2ccnc2)c2ccc(Cl)cc2Cl)c(Cl)c1 [OXICONAZOLE NITRATE], the EC50 [31] is reported as 1.92 µM (active), the IC50 [32] is reported as > 40 µM (inactive) and the IC50 [33] is reported as > 40 µM (inactive). The EC50 [34] was 3.82 µM (active).
For N[C@@H]1C[C@H]1c1ccccc1 [TRANYLCYPROMINE HYDROCHLORIDE], the IC50 [35] was > 33.3 µM (inactive), the IC50 [36] was > 33.3 µM (inactive) and the EC50 [37] was > 29.9 µM (inactive). For the same compound, the EC50 [38] was 0.611 µM (active), the IC50 [39] was > 29.9 µM (inactive) and the IC50 [40] was 2.1 µM (active).
